From publication PMC5957549 (Nature, 2017)

What was measured:
AdenosineA2A = AdenosineA2A (Homo sapiens, UniProt P29274); assay: Radioligand displacement; assay type: binding; settings: read-out: Inhib. (%)
Adenosine A1 = Adenosine A1 (Homo sapiens, UniProt P30542); assay: Radioligand displacement; assay type: binding; settings: read-out: Inhib. (%)
Adrenergic α2A = Adrenergic α2A (Homo sapiens, UniProt P08913); assay: Radioligand displacement; assay type: binding; settings: read-out: Inhib. (%)
Adrenergic α2A, sequence (P08913 whole entry): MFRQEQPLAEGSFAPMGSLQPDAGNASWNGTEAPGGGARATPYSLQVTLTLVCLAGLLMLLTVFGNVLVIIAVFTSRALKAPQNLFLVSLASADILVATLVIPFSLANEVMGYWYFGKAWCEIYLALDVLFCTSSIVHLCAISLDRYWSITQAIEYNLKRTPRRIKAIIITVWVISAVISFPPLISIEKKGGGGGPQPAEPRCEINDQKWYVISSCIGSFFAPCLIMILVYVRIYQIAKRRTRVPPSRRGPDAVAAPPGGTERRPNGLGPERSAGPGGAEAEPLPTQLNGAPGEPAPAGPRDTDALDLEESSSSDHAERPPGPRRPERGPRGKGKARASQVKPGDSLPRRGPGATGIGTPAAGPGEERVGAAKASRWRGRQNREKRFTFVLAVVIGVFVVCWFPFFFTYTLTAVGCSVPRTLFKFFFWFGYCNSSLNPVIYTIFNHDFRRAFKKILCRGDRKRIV

Adrenergic α1A = assay: Radioligand displacement; assay type: binding; settings: 10 μM fenethylline, average of two replicates
Adrenergic α1B = assay: Radioligand displacement; assay type: binding; settings: 10 μM fenethylline, average of two replicates
Adrenergic β2 = Adrenergic β2 (Homo sapiens, UniProt P07550); assay: Radioligand displacement; assay type: binding; settings: read-out: Inhib. (%)
Adrenergic β2, sequence (P07550 whole entry): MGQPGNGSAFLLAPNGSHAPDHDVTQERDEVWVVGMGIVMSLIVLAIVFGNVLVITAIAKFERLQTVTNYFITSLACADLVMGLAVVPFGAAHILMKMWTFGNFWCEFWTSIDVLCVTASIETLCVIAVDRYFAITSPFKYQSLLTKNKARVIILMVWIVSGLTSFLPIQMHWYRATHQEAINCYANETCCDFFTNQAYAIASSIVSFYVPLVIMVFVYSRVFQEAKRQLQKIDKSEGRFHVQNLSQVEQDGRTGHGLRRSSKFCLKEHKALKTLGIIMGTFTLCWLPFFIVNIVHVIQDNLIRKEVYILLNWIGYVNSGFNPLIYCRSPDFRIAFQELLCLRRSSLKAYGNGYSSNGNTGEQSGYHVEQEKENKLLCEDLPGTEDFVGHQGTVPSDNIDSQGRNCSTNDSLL

Adrenergic β1 = Adrenergic β1 (Homo sapiens, UniProt P08588); assay: Radioligand displacement; assay type: binding; settings: read-out: Inhib. (%)
L-Type Ca Channel = assay: Radioligand displacement; assay type: binding; settings: 10 μM fenethylline, average of two replicates
Cannabinoid CB1 = Cannabinoid CB1 (Homo sapiens, UniProt P21554); assay: Radioligand displacement; assay type: binding; settings: read-out: Inhib. (%)
Cannabinoid CB1, sequence (P21554 whole entry): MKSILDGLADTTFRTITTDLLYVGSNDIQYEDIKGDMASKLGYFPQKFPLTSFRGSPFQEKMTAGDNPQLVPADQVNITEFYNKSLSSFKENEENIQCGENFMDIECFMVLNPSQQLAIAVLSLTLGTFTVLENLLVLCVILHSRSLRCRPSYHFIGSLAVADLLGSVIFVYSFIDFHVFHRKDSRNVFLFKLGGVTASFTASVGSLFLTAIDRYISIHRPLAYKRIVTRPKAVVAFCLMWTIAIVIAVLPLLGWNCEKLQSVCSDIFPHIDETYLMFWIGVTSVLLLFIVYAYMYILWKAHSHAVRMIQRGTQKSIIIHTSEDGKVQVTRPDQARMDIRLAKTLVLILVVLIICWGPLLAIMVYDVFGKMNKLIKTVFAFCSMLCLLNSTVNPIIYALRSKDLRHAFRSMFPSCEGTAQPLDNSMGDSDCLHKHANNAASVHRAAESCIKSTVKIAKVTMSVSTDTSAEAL

Dopamine D2S = Dopamine D2S (Homo sapiens, UniProt P14416); assay: Radioligand displacement; assay type: binding; settings: read-out: Inhib. (%)
Dopamine D2S, sequence (P14416 1-414 isoform P14416-2): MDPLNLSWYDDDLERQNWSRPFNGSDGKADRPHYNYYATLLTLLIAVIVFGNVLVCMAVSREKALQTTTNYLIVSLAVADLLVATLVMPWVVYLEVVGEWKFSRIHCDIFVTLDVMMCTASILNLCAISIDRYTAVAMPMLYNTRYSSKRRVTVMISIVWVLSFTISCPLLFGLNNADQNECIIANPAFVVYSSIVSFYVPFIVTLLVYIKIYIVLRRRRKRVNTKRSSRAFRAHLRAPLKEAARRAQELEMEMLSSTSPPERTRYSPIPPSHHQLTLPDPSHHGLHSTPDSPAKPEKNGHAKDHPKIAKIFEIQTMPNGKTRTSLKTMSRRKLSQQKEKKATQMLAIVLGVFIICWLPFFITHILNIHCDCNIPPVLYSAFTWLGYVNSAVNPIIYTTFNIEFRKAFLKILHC

GABAA – Site 1 = assay: Radioligand displacement; assay type: binding; settings: 10 μM fenethylline, average of two replicates
GABAA – Site 2 = assay: Radioligand displacement; assay type: binding; settings: 10 μM fenethylline, average of two replicates
Glutamate – NMDA = assay: Radioligand displacement; assay type: binding; settings: 10 μM fenethylline, average of two replicates
Muscarinic M2 = Muscarinic M2 (Homo sapiens, UniProt P08172); assay: Radioligand displacement; assay type: binding; settings: read-out: Inhib. (%)
Muscarinic M2, sequence (P08172 whole entry): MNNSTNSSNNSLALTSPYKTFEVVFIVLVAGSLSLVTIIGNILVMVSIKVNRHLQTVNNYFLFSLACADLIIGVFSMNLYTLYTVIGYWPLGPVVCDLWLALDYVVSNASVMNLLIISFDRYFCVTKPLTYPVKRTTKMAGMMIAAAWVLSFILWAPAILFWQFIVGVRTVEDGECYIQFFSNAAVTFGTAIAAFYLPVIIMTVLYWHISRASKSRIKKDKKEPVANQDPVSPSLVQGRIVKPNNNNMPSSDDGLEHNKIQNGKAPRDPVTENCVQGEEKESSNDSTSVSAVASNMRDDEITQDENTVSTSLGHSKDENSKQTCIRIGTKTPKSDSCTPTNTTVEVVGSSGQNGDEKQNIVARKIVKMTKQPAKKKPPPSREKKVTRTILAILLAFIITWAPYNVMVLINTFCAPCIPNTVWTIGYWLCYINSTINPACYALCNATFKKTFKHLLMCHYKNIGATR

Muscarinic M3 = Muscarinic M3 (Homo sapiens, UniProt P20309); assay: Radioligand displacement; assay type: binding; settings: read-out: Inhib. (%)
Muscarinic M3, sequence (P20309 whole entry): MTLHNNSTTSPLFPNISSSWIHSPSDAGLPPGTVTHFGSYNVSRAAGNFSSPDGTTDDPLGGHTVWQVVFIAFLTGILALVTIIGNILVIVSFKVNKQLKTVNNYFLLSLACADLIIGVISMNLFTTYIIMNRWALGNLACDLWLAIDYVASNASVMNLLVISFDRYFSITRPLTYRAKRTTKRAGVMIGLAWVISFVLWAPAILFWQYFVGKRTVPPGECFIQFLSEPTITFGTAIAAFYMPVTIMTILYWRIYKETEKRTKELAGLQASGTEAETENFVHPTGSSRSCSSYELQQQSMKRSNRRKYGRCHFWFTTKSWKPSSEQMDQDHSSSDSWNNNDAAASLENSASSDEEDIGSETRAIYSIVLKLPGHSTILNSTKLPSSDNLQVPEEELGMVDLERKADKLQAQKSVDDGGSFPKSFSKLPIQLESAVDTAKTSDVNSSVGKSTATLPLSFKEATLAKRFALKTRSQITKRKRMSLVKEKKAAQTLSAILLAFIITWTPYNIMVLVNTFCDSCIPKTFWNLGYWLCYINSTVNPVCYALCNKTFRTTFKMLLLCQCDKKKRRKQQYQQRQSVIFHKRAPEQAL

Nicotinic Ach = assay: Radioligand displacement; assay type: binding; settings: 10 μM fenethylline, average of two replicates
Nicotinic Ach α1 = Nicotinic Ach α1 (Homo sapiens, UniProt P02708+P07510+Q07001); assay: Radioligand displacement; assay type: binding; settings: read-out: Inhib. (%)
Phorbol Ester = assay: Radioligand displacement; assay type: binding; settings: 10 μM fenethylline, average of two replicates
Prostanoid EP4 = Prostanoid EP4 (Homo sapiens, UniProt P35408); assay: Radioligand displacement; assay type: binding; settings: read-out: Inhib. (%)
Prostanoid EP4, sequence (P35408 whole entry): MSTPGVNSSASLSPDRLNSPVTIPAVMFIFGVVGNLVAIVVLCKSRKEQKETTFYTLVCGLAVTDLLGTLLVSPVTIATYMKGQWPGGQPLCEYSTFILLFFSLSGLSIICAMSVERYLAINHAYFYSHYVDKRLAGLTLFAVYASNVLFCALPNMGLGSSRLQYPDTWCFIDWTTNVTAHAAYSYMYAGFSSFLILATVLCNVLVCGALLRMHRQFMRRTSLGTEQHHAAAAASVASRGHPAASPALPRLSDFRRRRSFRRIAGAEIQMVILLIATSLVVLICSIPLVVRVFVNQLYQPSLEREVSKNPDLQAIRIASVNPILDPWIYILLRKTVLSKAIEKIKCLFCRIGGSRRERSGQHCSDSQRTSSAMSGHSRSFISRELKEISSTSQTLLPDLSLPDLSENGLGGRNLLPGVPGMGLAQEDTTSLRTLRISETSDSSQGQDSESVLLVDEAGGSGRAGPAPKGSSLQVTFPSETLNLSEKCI

Rolipram = assay: Radioligand displacement; assay type: binding; settings: 10 μM fenethylline, average of two replicates
Sigma σ1 = Sigma σ1 (Homo sapiens, UniProt Q99720); assay: Radioligand displacement; assay type: binding; settings: read-out: Inhib. (%)
Sigma σ1, sequence (Q99720 whole entry): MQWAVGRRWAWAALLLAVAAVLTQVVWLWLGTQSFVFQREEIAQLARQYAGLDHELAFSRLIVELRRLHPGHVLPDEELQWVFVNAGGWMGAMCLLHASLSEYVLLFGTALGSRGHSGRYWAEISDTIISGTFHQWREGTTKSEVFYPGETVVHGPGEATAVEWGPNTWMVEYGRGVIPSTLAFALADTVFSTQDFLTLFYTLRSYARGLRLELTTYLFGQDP

Norepi. Transporter = Norepi. Transporter (Homo sapiens, UniProt P23975); assay: Radioligand displacement; assay type: binding; settings: read-out: Inhib. (%)
Norepi. Transporter, sequence (P23975 whole entry): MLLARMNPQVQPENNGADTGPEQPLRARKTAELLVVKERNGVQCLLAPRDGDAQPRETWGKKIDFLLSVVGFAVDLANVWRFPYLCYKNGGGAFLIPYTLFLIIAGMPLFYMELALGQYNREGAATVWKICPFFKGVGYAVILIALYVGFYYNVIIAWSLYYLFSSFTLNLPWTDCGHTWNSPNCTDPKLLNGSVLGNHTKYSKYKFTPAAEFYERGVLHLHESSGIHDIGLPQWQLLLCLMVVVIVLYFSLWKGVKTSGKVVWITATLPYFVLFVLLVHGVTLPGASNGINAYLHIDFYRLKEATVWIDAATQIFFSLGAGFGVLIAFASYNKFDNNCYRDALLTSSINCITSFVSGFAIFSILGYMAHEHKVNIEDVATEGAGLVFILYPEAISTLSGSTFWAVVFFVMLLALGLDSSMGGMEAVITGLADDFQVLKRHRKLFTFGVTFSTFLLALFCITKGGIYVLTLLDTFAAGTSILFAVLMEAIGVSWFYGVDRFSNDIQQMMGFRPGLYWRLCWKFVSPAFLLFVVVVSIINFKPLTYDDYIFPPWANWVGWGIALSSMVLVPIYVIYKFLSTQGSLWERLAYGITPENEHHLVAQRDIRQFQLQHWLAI

[1] = assay type: in vivo, Swiss Webster mice; settings: fenethylline 50 mg/kg vs amphetamine 5 mg/kg
Swiss Webster mice [2] = assay: Open field hyperlocomotor activity assay; assay type: in vivo
Swiss Webster mice [3] = assay: Elevated plus maze; assay type: in vivo; settings: EPM; fenethylline 20 mg/kg
Swiss Webster mice [4] = assay: Conditioned place preference; assay type: in vivo; settings: training with fenethylline 20 mg/kg
suite of 31 CNS targets = assay: Binding across a suite of 31 CNS targets; settings: 10 μM

AdenosineA2A, sequence (P29274 whole entry): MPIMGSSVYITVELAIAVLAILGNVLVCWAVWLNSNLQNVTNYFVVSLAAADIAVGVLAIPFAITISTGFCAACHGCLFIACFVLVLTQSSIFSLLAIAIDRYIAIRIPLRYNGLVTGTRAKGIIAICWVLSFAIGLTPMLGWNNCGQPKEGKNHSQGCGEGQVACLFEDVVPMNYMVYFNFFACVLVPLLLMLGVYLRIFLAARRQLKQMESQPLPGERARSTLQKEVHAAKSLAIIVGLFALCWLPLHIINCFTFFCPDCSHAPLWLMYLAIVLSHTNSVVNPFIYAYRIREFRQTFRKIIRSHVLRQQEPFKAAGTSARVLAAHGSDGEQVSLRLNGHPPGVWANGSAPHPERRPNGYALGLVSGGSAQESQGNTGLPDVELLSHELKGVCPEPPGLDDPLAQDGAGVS
Adenosine A1, sequence (P30542 whole entry): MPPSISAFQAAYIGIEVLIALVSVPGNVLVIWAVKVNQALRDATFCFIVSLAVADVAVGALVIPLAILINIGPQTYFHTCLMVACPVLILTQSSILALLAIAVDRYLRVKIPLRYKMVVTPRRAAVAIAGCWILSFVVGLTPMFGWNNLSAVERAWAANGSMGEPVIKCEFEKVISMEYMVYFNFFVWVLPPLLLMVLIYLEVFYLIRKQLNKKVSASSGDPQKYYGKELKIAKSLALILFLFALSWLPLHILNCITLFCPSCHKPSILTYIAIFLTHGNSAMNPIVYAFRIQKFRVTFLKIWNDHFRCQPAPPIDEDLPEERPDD

In the case of `CC(Cc1ccccc1)NCCn1cnc2c1c(=O)n(C)c(=O)n2C` (stereo not shown) [fenethylline, Fenethylline], the inhibition at 10 µM (AdenosineA2A) is reported as -5%, the inhibition at 10 µM (Adenosine A1) is reported as 0% and the inhibition at 10 µM (Adrenergic α2A) is reported as 16%. The “Inhib. (%)” value (Adrenergic α1A) was 27%, the “Inhib. (%)” value (Adrenergic α1B) was 16% and the inhibition at 10 µM (Adrenergic β2) was 3%. The inhibition at 10 µM (Adrenergic β1) was 9%, the “Inhib. (%)” value (L-Type Ca Channel) was 6% and the inhibition at 10 µM (Cannabinoid CB1) was 16%. The inhibition at 10 µM (Dopamine D2S) was 1%, the “Inhib. (%)” value (GABAA – Site 1) was 0% and the “Inhib. (%)” value (GABAA – Site 2) was 5%. The “Inhib. (%)” value (Glutamate – NMDA) was 10%, the inhibition at 10 µM (Muscarinic M2) was -6% and the inhibition at 10 µM (Muscarinic M3) was 2%. For the same molecule, the “Inhib. (%)” value (Nicotinic Ach) was 2%, the inhibition at 10 µM (Nicotinic Ach α1) was 9% and the “Inhib. (%)” value (Phorbol Ester) was 9%. For the same molecule, the inhibition at 10 µM (Prostanoid EP4) was 3%, the “Inhib. (%)” value (Rolipram) was 9% and the inhibition at 10 µM (Sigma σ1) was 7%. For the same molecule, the inhibition at 10 µM (Norepi. Transporter) was 10%, the “penetration of liberated amphetamine into brain tissue” value [1] was “lags behind that of directly administered amphetamine” and the “onset of stimulant (hyperlocomotor) activity” value (Swiss Webster mice [2]; fenethylline 20 mg/kg vs amphetamine 2 mg/kg) was “more rapid than that of amphetamine alone”. The “locomotor activity after drug in control animals” value (Swiss Webster mice [2]; open field, control (KLH) animals) was “clear dose-dependent increase”, the “time spent in open arms after drug in control animals” value (Swiss Webster mice [3]) was “reduced the time” and the “induction of conditioned place preference” value (Swiss Webster mice [4]) was “induce CPP”. For the same molecule, the “binding across a suite of 31 CNS targets” value (suite of 31 CNS targets) was “little binding”.
